Measurements: patent publication US10878939B2, “Methods and compositions for personalized pain management” (Children's Hospital Medical Center, priority 2014, dated 2020)
“And” between values parts separate entries of the source, which are not always exact repeats. Equal values may be shown once.

System: children undergoing tonsillectomy
Assay: Opioid-related adverse effects and PACU stay by sex, age and morphine dose (Example 6)
[1] = F, total morphine 0.2-<0.3 mg/kg
[2] = M, total morphine 0.2-<0.3 mg/kg
[3] = girls 8-13 years, total morphine <0.3 mg/kg
[4] = girls 8-13 years, total morphine >=0.3 mg/kg
[5] = girls <8 years, total morphine <0.3 mg/kg
[6] = girls <8 years, total morphine >=0.3 mg/kg
[7] = girls >13 years, total morphine <0.3 mg/kg
[8] = girls >13 years, total morphine >=0.3 mg/kg

Source text: This was a prospective clinical observational study using a standard perioperative anesthetic and surgical practices and standard postoperative nursing care within the tonsillectomy population.
Clinical criteria for OSA designation included sleep disordered breathing with a history of snoring and either sleep pauses lasting more than 10 seconds or daytime drowsiness. Children were excluded from the study if they or their parents were non-English speaking.
As part of T/TA standard practice at this institution, all children receive prophylactic ondansetron (0.1 mg/kg) and dexamethasone (0.1 mg/kg) intraoperatively. Anesthesia is induced via sevoflurane inhaled induction followed by a propofol (2 mg/kg) bolus to facilitate endotracheal intubation. Anesthesia was maintained with sevoflurane without the use of neuromuscular blockade.
Adverse effects were measured by two sets of binary outcomes: 1) opioid-related side effects including RD, nausea/vomiting (PONV) and pruritus; 2) prolonged PACU stay secondary to respiratory depression or nausea/vomiting.
Duration of PACU stay (time to achieve PACU discharge readiness) was defined as the duration in PACU before achieving the following discharge criteria. […] This discharge readiness time is different from actual PACU discharge time as delays due to social reasons (e.g. waiting for car ride, etc.) were not included.
Prior to analyses, data quality was examined. […] To assess the sex effect, outcome measurements were first compared between boys and girls with and without OSA stratification. Continuous variables were compared using t-test or Wilcoxon rank-sum test and categorical variables were compared using Fisher's exact test.
Effects of age, weight, BMI z scores, and OSA were also tested as covariates for all the outcomes. When significant effects were detected (p<0.05), covariates were included in the final models. Binary outcomes were analyzed using logistic regression. Maximum NRS was analyzed using linear regression. Maximum FLACC score was analyzed by using a zero-inflated negative binomial model because of the inflated frequency of score 0. The total number of analgesic interventions followed a Poisson distribution and was analyzed using a generalized linear model.

**Q.** For `CN1CC[C@]23c4c5ccc(O)c4O[C@H]2[C@@H](O)C=C[C@H]3[C@H]1C5` [morphine], which “PONV, number of cases” value (F, All) is on record?
**A.** 22

**Q.** And the “PONV, proportion” value (F, All)?
**A.** (10%)

**Q.** And the “Prolonged stay in PACU due to PONV, proportion” value (F, All)?
**A.** (5%)

**Q.** What about the “Prolonged stay in PACU due to RD, number of cases” value (F, All) of the same compound?
**A.** 11

**Q.** What about the “Prolonged stay in PACU due to RD, proportion” value (F, All) of the same compound?
**A.** (5%)

**Q.** What about the “Pruritus, number of cases” value (F, All) of the same compound?
**A.** 88

**Q.** And the “Pruritus, proportion” value (F, All)?
**A.** (41%)

**Q.** What about the “RD, proportion” value (F, All) of the same compound?
**A.** (9%)

**Q.** What about the “PONV, number of cases” value (F, OSA No) of the same compound?
**A.** 11

**Q.** And the “PONV, proportion” value (F, OSA No)?
**A.** (9%)

**Q.** And the “Prolonged stay in PACU due to PONV, proportion” value (F, OSA No)?
**A.** (2%)

**Q.** What about the “Prolonged stay in PACU due to RD, number of cases” value (F, OSA No) of the same compound?
**A.** 5

**Q.** And the “Prolonged stay in PACU due to RD, proportion” value (F, OSA No)?
**A.** (4%)

**Q.** And the “Pruritus, number of cases” value (F, OSA No)?
**A.** 41

**Q.** What about the “Pruritus, proportion” value (F, OSA No) of the same compound?
**A.** (33%)

**Q.** What about the “RD, number of cases” value (F, OSA No) of the same compound?
**A.** 9

**Q.** What about the “RD, proportion” value (F, OSA No) of the same compound?
**A.** (7%)

**Q.** And the “PONV, number of cases” value (F, OSA Yes)?
**A.** 11

**Q.** And the “PONV, proportion” value (F, OSA Yes)?
**A.** (12%)

**Q.** And the “Prolonged stay in PACU due to PONV, proportion” value (F, OSA Yes)?
**A.** (8%)

**Q.** What about the “Prolonged stay in PACU due to RD, number of cases” value (F, OSA Yes) of the same compound?
**A.** 6

**Q.** And the “Prolonged stay in PACU due to RD, proportion” value (F, OSA Yes)?
**A.** (6%)

**Q.** And the “Pruritus, number of cases” value (F, OSA Yes)?
**A.** 47

**Q.** And the “Pruritus, proportion” value (F, OSA Yes)?
**A.** (50%)

**Q.** And the “RD, proportion” value (F, OSA Yes)?
**A.** (12%)

**Q.** And the “PONV, number of cases (%)” value [1]?
**A.** 8 (16)

**Q.** What about the “Prolonged stay in PACU due to PONV, number of cases (%)” value [1] of the same compound?
**A.** 3 (6)

**Q.** What about the “Prolonged stay in PACU due to RD, number of cases (%)” value [1] of the same compound?
**A.** 1 (2)

**Q.** What about the “Pruritus, number of cases (%)” value [1] of the same compound?
**A.** 42 (84)

**Q.** What about the “PONV, number of cases (%)” value (F, total morphine <0.2 mg/kg) of the same compound?
**A.** 4 (10)

**Q.** And the “Prolonged stay in PACU due to PONV, number of cases (%)” value (F, total morphine <0.2 mg/kg)?
**A.** 2 (5)

**Q.** What about the “Prolonged stay in PACU due to RD, number of cases (%)” value (F, total morphine <0.2 mg/kg) of the same compound?
**A.** 2 (5)

**Q.** What about the “Pruritus, number of cases (%)” value (F, total morphine <0.2 mg/kg) of the same compound?
**A.** 29 (73)

**Q.** What about the “PONV, number of cases (%)” value (F, total morphine ≥0.3 mg/kg) of the same compound?
**A.** 10 (43)

**Q.** And the “Prolonged stay in PACU due to PONV, number of cases (%)” value (F, total morphine ≥0.3 mg/kg)?
**A.** 5 (22)

**Q.** What about the “Prolonged stay in PACU due to RD, number of cases (%)” value (F, total morphine ≥0.3 mg/kg) of the same compound?
**A.** 8 (35)

**Q.** And the “Pruritus, number of cases (%)” value (F, total morphine ≥0.3 mg/kg)?
**A.** 17 (74)

**Q.** And the “RD, number of cases (%)” value (F, total morphine ≥0.3 mg/kg)?
**A.** 12 (52)

**Q.** And the “PONV, number of cases” value (M, All)?
**A.** 14

**Q.** And the “PONV, proportion” value (M, All)?
**A.** (6%)

**Q.** What about the “Prolonged stay in PACU due to PONV, proportion” value (M, All) of the same compound?
**A.** (4%)

**Q.** And the “Prolonged stay in PACU due to RD, number of cases” value (M, All)?
**A.** 13

**Q.** And the “Prolonged stay in PACU due to RD, proportion” value (M, All)?
**A.** (6%)

**Q.** And the “Pruritus, number of cases” value (M, All)?
**A.** 79

**Q.** And the “Pruritus, proportion” value (M, All)?
**A.** (36%)

**Q.** And the “RD, proportion” value (M, All)?
**A.** (8%)

**Q.** What about the “PONV, number of cases” value (M, OSA No) of the same compound?
**A.** 7

**Q.** What about the “PONV, proportion” value (M, OSA No) of the same compound?
**A.** (6%)

**Q.** And the “Prolonged stay in PACU due to PONV, proportion” value (M, OSA No)?
**A.** (5%)

**Q.** What about the “Prolonged stay in PACU due to RD, number of cases” value (M, OSA No) of the same compound?
**A.** 8

**Q.** What about the “Prolonged stay in PACU due to RD, proportion” value (M, OSA No) of the same compound?
**A.** (6%)

**Q.** And the “Pruritus, number of cases” value (M, OSA No)?
**A.** 51

**Q.** What about the “Pruritus, proportion” value (M, OSA No) of the same compound?
**A.** (41%)

**Q.** And the “RD, number of cases” value (M, OSA No)?
**A.** 12

**Q.** And the “RD, proportion” value (M, OSA No)?
**A.** (10%)

**Q.** And the “PONV, number of cases” value (M, OSA Yes)?
**A.** 7

**Q.** What about the “PONV, proportion” value (M, OSA Yes) of the same compound?
**A.** (7%)

**Q.** And the “Prolonged stay in PACU due to PONV, proportion” value (M, OSA Yes)?
**A.** (2%)

**Q.** And the “Prolonged stay in PACU due to RD, number of cases” value (M, OSA Yes)?
**A.** 5

**Q.** What about the “Prolonged stay in PACU due to RD, proportion” value (M, OSA Yes) of the same compound?
**A.** (5%)

**Q.** And the “Pruritus, number of cases” value (M, OSA Yes)?
**A.** 28

**Q.** And the “Pruritus, proportion” value (M, OSA Yes)?
**A.** (30%)

**Q.** And the “RD, number of cases” value (M, OSA Yes)?
**A.** 6

**Q.** What about the “RD, proportion” value (M, OSA Yes) of the same compound?
**A.** (6%)

**Q.** And the “PONV, number of cases (%)” value [2]?
**A.** 7 (15)

**Q.** And the “Prolonged stay in PACU due to PONV, number of cases (%)” value [2]?
**A.** 3 (6)

**Q.** What about the “Prolonged stay in PACU due to RD, number of cases (%)” value [2] of the same compound?
**A.** 3 (6)

**Q.** And the “Pruritus, number of cases (%)” value [2]?
**A.** 35 (76)

**Q.** And the “RD, number of cases (%)” value [2]?
**A.** 6 (13)

**Q.** What about the “PONV, number of cases (%)” value (M, total morphine <0.2 mg/kg) of the same compound?
**A.** 6 (18)

**Q.** What about the “Prolonged stay in PACU due to PONV, number of cases (%)” value (M, total morphine <0.2 mg/kg) of the same compound?
**A.** 4 (12)

**Q.** What about the “Prolonged stay in PACU due to RD, number of cases (%)” value (M, total morphine <0.2 mg/kg) of the same compound?
**A.** 5 (15)

**Q.** And the “Pruritus, number of cases (%)” value (M, total morphine <0.2 mg/kg)?
**A.** 24

**Q.** What about the “RD, number of cases (%)” value (M, total morphine <0.2 mg/kg) of the same compound?
**A.** 4 (12)

**Q.** And the “PONV, number of cases (%)” value (M, total morphine ≥0.3 mg/kg)?
**A.** 1 (4)

**Q.** And the “Prolonged stay in PACU due to PONV, number of cases (%)” value (M, total morphine ≥0.3 mg/kg)?
**A.** 1 (4)

**Q.** What about the “Prolonged stay in PACU due to RD, number of cases (%)” value (M, total morphine ≥0.3 mg/kg) of the same compound?
**A.** 5 (20)

**Q.** And the “Pruritus, number of cases (%)” value (M, total morphine ≥0.3 mg/kg)?
**A.** 20 (80)

**Q.** What about the “RD, number of cases (%)” value (M, total morphine ≥0.3 mg/kg) of the same compound?
**A.** 8 (32)

**Q.** What about the “PONV, number of cases (%)” value [3] of the same compound?
**A.** 2 (5)

**Q.** What about the “Prolonged stay in PACU due to PONV, number of cases (%)” value [3] of the same compound?
**A.** 2 (5)

**Q.** And the “Prolonged stay in PACU due to RD, number of cases (%)” value [3]?
**A.** 1 (2)

**Q.** And the “Respiratory depression (RD), number of cases (%)” value (“Respiratory depression (RD) … (%)” below) [3]?
**A.** 4 (9)

**Q.** What about the “PONV, number of cases (%)” value [4] of the same compound?
**A.** 1 (11)

**Q.** And the “Prolonged stay in PACU due to PONV, number of cases (%)” value [4]?
**A.** 1 (11)

**Q.** And the “Prolonged stay in PACU due to RD, number of cases (%)” value [4]?
**A.** 3 (33)

**Q.** And the “Respiratory depression (RD) … (%)” value [4]?
**A.** 5 (56)

**Q.** And the “PONV, number of cases (%)” value [5]?
**A.** 7 (19)

**Q.** And the “Prolonged stay in PACU due to PONV, number of cases (%)” value [5]?
**A.** 2 (5)

**Q.** What about the “Prolonged stay in PACU due to RD, number of cases (%)” value [5] of the same compound?
**A.** 2 (5)

**Q.** What about the “Respiratory depression (RD) … (%)” value [5] of the same compound?
**A.** 3 (8)

**Q.** What about the “PONV, number of cases (%)” value [6] of the same compound?
**A.** 6 (60)

**Q.** And the “Prolonged stay in PACU due to PONV, number of cases (%)” value [6]?
**A.** 4 (40)

**Q.** And the “Prolonged stay in PACU due to RD, number of cases (%)” value [6]?
**A.** 4 (40)

**Q.** And the “Respiratory depression (RD) … (%)” value [6]?
**A.** 5 (50)

**Q.** And the “PONV, number of cases (%)” value [7]?
**A.** 1 (9)

**Q.** And the “Prolonged stay in PACU due to PONV, number of cases (%)” value [7]?
**A.** 1 (9)

**Q.** What about the “Prolonged stay in PACU due to RD, number of cases (%)” value [7] of the same compound?
**A.** 0 (0)

**Q.** What about the “Respiratory depression (RD) … (%)” value [7] of the same compound?
**A.** 1 (9)

**Q.** What about the “PONV, number of cases (%)” value [8] of the same compound?
**A.** 0 (0)

**Q.** What about the “Prolonged stay in PACU due to PONV, number of cases (%)” value [8] of the same compound?
**A.** 0 (0)

**Q.** What about the “Prolonged stay in PACU due to RD, number of cases (%)” value [8] of the same compound?
**A.** 1 (25)

**Q.** And the “Respiratory depression (RD) … (%)” value [8]?
**A.** 2 (50)

**Q.** What about the “probability of all opioid adverse effects except for pruritus” value (girls, morphine exceeded 0.3 mg/kg, multivariate models) of the same compound?
**A.** increased significantly

**Q.** What about the “duration of stay in PACU” value (white boys, <0.3 mg/kg total morphine) of the same compound?
**A.** 88.3 ± 3.6 min

**Q.** And the “duration of stay in PACU” value (white boys, ≥0.3 mg/kg total morphine)?
**A.** 99.7 ± 6.4 min

**Q.** And the “duration of stay in PACU” value (white girls, <0.3 mg/kg total morphine)?
**A.** 82.2 ± 3.3 min

**Q.** What about the “duration of stay in PACU” value (white girls, ≥0.3 mg/kg total morphine, 0.3 mg/kg) of the same compound?
**A.** 111 ± 6.6 min and 111.1 ± 6.6 min
